In patent publication US7157487B2, “Vla-4 inhibitors” (Daiichi Pharmaceutical Co., Ltd., priority 2000, dated 2007) one finds Ki data, which are given here for 25 molecules.

pKi: −log10 of the molar value.

The target of the experiment is T1, integrins haα4 and β1 (VLA-4) expressed on CHO cells (Homo sapiens, UniProt P05556+P13612).
T1 construct: expressed in transfected cells; host or cells: CHO cells
T1 sequence (P13612 34-1032): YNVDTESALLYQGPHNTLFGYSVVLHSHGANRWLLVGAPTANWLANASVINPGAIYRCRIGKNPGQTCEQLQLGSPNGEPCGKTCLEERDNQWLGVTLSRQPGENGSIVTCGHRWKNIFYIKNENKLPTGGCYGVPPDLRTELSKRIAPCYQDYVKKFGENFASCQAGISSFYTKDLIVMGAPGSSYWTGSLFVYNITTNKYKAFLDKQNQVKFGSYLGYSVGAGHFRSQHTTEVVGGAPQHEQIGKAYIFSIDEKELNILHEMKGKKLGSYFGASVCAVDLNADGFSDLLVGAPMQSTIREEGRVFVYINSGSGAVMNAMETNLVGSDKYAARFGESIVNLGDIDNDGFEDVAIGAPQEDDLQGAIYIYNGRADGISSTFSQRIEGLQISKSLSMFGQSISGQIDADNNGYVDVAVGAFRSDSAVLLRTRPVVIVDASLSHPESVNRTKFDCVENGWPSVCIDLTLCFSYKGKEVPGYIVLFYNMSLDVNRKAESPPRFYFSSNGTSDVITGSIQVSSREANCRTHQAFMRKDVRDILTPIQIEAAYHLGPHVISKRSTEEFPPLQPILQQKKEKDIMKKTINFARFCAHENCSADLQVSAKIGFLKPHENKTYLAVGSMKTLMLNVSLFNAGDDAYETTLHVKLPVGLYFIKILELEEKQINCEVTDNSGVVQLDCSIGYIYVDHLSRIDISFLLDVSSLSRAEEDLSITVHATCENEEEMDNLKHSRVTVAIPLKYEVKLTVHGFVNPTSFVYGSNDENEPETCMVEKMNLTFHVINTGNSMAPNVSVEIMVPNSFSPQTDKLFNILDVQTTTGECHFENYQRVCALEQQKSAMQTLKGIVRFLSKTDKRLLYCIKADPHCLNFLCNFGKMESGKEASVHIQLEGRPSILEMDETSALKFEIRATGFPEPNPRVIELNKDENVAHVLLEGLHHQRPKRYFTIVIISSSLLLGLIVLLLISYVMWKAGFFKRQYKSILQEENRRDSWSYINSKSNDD
T1 sequence (P05556 21-798): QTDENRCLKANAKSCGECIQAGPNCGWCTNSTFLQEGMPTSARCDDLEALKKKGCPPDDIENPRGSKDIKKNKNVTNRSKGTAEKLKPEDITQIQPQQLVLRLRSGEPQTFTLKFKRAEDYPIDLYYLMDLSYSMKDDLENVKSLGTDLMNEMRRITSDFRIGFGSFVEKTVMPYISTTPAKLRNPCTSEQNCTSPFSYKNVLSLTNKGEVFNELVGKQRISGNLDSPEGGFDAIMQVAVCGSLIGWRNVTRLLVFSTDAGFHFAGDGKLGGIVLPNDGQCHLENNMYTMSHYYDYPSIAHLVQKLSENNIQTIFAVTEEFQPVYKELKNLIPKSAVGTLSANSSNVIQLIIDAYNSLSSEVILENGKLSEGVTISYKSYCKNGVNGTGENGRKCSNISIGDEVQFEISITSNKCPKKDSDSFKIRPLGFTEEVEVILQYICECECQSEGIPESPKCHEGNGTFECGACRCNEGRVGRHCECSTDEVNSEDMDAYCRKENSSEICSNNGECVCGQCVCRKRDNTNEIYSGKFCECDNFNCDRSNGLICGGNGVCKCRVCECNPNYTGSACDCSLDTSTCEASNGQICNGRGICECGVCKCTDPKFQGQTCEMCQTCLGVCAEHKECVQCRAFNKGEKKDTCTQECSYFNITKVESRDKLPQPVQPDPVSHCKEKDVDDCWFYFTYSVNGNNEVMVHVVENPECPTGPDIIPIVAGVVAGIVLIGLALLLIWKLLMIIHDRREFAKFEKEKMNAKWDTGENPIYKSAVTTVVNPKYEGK
Put plainly: In vitro Evaluation Test (1): binding of Eu3+-hVCAM-1 D1D7-IgG to CHO cells expressing integrins α4 and β1. To be noted: inhibition of Eu3+-hVCAM-1 D1D7-IgG binding to CHO cells expressing α4β1; Ki calculated from IC50. The protocol: CHO cells forcedly expressed by the transduction of integrins haα4 and β1 were seeded in a Coster 3599 plate (3×10^4 cells/100 μl/well) and they were cultured for 2 days. After the medium was washed with buffer A* twice, 50 μl/well of Eu^3+-hVCAM-1 D1D7-IgG diluted to […] with an assay buffer ** was added. To the resulting well was added 50 μl/well of a test compound diluted with 2% DMS0-assay buffer (in the presence or absence of 6% human serum albumin) (to a well subjected to Scatchard analysis was added a solution diluted in another manner). After stirring for 5 minutes on a plate mixer, the plate was allowed to stand at room temperature for 1 hour. Then, the plate was washed four times with the buffer A and added with 100 μl/well of an enhancement reagent (DELFIA). The plate was shaken for 5 minutes on a plate mixer, followed by measurement of fluorescence intensity by a time-resolved fluorometer (DELFIA Wallac). From the binding ratio available by the following calculation formula: ((FT−FNS)−(FI−FNS))/(FT−FNS)×100, the IC50 (concentration inhibiting 50% of binding of CHO cells with hVCAM-1 D1D7-IgG) of the test compound was determined. In the above formula, FT means the fluorescence intensity of the well free of the test compound, FNS means the fluorescence intensity of the well free of the test compound and anti-hα4 antibody (SG/73), and FI means the fluorescence intensity of the well containing the test compound. The Kd indicating the binding strength and Bmax (maximum binding) were estimated within a range of 0.06 to 20 nM in accordance with the Scatchard analysis method.
The value Ki was calculated based on:
[formula] ((L) means a ligand concentration). (* buffer A: 25 mM HEPES (pH 7.5), 150 mM NaCl, 1 mM Ca^2+, 1 MM Mg^2+, 4 mM Mn^2+; ** assay buffer: 25 mM HEPES (pH 7.5), 150 mM NaCl, 1 mM Ca^2+, 1 mM Mg^2+, 4 mM Mn^2+, 0.1% BSA, 20 μM DTPA, with/without 6% ALBUMIN, HUMAN SERUM (C/N A-1653, SIGMA)) In vitro Evaluation Test (2)
What is called pKi is the Ki on a negative log10 scale, so that one unit is a factor of ten. For `Cn1cc(C(=O)Nc2cc(F)c(CC(=O)N3CC(F)(F)C[C@H]3CO[C@H]3CC[C@H](C(=O)O)CC3)cc2Cl)c2ccccc21` (mixture of isomers) [Example 143, trans-4-(1-(5-Chloro-2-fluoro-4-(1-methyl-3-indolylcarbonylamino)phenylacetyl)-4,4-difluoro-(2S)-pyrrolidinylmethoxy)cyclohexanecarboxylic acid and cis-4-(1-(5-chloro-2-fluoro-4-(1-methyl-3-indolylcarbonylamino)phenylacetyl)-4,4-difluoro-(2S)-pyrrolidinylmethoxy)cyclohexanecarboxylic acid], the negative logarithm of the Ki (pKi) is 7.77.

Take `Cn1cc(-c2nc3ccc(CC(=O)N4C[C@@H](F)C[C@H]4CO[C@H]4CC[C@H](C(=O)O)CC4)c(F)c3o2)c2cc(F)ccc21` (relative stereo) [Example 101, trans-4-(1-((2-(5-Fluoro-1-methyl-3-indolyl)-7-fluoro-6-benzoxazolyl)acetyl)-(4S)-fluoro-(2S)-pyrrolidinylmethoxy)cyclohexanecarboxylic acid]: the pKi is 8.09.

Consider `CO[C@H]1C[C@@H](CO[C@H]2CC[C@H](C(=O)O)CC2)N(C(=O)Cc2ccc3nc(Nc4ccccc4Cl)oc3c2F)C1` (relative stereo) [Example 114, trans-4-(1-((2-(2-chlorophenylamino)-7-fluoro-6-benzoxazolyl)acetyl)-(4S)-methoxy-(2S)-pyrrolidinylmethoxy)cyclohexanecarboxylic acid], for which the pKi is 8.32.

As for `Cc1ccccc1Nc1nc2ccc(CC(=O)N3C[C@@H](F)C[C@H]3COC3CCC(C(=O)O)CC3)cc2o1` (single isomer, unassigned) [21 (Isomer G)], the pKi was 6.42.

`Cc1ccccc1Nc1nc2ccc(CC(=O)N3CCC[C@H]3COC3CCC(C(=O)O)CC3)cc2o1` (single isomer, unassigned) [22 (Isomer B)]: the pKi is 8.46.

Consider `Cc1ccccc1Nc1nc2ccc(CC(=O)N3C[C@@H](F)C[C@H]3COC3CCC(C(=O)O)CC3)c(F)c2o1` (single isomer, unassigned) [26 (Isomer A)], for which the pKi was 8.70.

As to `O=C(O)c1ccc(OC[C@@H]2C[C@H](F)CN2C(=O)Cc2ccc3nc(Nc4ccccc4)oc3c2)cc1` [Example 1], the pKi was 7.52.

For the molecule `Cc1ccccc1Nc1nc2ccc(CC(=O)N3C[C@@H](F)C[C@H]3COc3ccc(C(=O)O)cc3)cc2o1` [Example 2, 4-((4S)-Fluoro-1-(2-(2-methylphenylamino)-6-benzoxazolylacetyl)-(2S)-pyrrolidinylmethoxy)benzoic acid], the pKi was 7.77.

As for `COc1cc(CC(=O)N2C[C@@H](F)C[C@H]2COc2ccc(C(=O)O)cc2)cc2oc(Nc3ccccc3C)nc12` [Example 3, 4-((4S)-Fluoro-1-(4-methoxy-2-(2-methylphenylamino)-6-benzoxazolylacetyl)-(2S)-pyrrolidinylmethoxy)benzoic acid], the pKi was 7.40.

In the case of `Cc1ccccc1Nc1nc2ccc(CC(=O)N3C[C@@H](F)C[C@H]3COc3ccc(C(=O)O)cc3)c(F)c2o1` [Example 6, 4-((2S,4S)-1-(7-Fluoro-2-(2-methylphenylamino)-6-benzoxazolylacetyl)-4-fluoro-2-pyrrolidinylmethoxy)benzoic acid], the pKi was 7.85.

Turning to `Cc1ccccc1Nc1nc2ccc(CC(=O)N3C[C@@H](N(C)C)C[C@H]3COc3ccc(C(=O)O)cc3)cc2o1` [Example 7, 4-((4S)-Dimethylamino-1-(2-(2-methylphenylamino)-6-benzoxazolylacetyl)-(2S)-pyrrolidinylmethoxy)benzoic acid], the pKi was 8.15.

As for `Cc1ccccc1Nc1nc2ccc(CC(=O)N3C[C@@H](O)C[C@H]3COc3ccc(C(=O)O)cc3)cc2o1` [Example 8, 4-((2S,4S)-4-Hydroxy-1-(2-(2-methylphenylamino)-6-benzoxazolylacetyl)-2-pyrrolidinylmethoxy)benzoic acid], the pKi was 7.62.

As to `O=C(O)c1ccc(OC[C@@H]2C[C@H](F)CN2C(=O)Cc2ccc(NC(=O)c3c[nH]c4ccccc34)c(Cl)c2)cc1` [Example 15, 4-(1-(3-Chloro-4-(3-indolylcarbonylamino)phenylacetyl)-(4S)-fluoro-(2S)-pyrrolidinylmethoxy)benzoic acid], the pKi is 8.66.

Regarding `Cc1ccccc1Nc1nc2ccc(CC(=O)N3C[C@@H](F)C[C@H]3COc3ccc(C(=O)O)cn3)cc2o1` [Example 18, 6-((4S)-Fluoro-1-(2-(2-methylphenylamino)-6-benzoxazolylacetyl)-(2S)-pyrrolidinylmethoxy)nicotinic acid], the pKi was 8.11.

In the case of `Cc1ccccc1Nc1nc2ccc(CC(=O)N3C[C@@H](F)C[C@H]3C(=O)N3CCN(CC(=O)O)CC3)cc2o1` [Example 30, 4-((4S)-Fluoro-1-(2-(2-methylphenylamino)-6-benzoxazolylacetyl)-(2S)-pyrrolidinylcarbonyl)-1-piperazinylacetic acid], the pKi was 7.40.

With `Cc1ccccc1Nc1nc2ccc(CC(=O)N3C[C@@H](F)C[C@H]3C(=O)N3CCC(CC(=O)O)CC3)cc2o1` [Example 31, 1-((4S)-Fluoro-1-(2-(2-methylphenylamino)-6-benzoxazolylacetyl)-(2S)-pyrrolidinylcarbonyl)-4-piperidinylacetic acid], the pKi was 7.80.

On to `Cc1ccccc1Nc1nc2ccc(CC(=O)N3C[C@@H](F)C[C@H]3CNc3ccc(C(=O)O)cc3)cc2o1` [Example 33, 4-(1-(2-(2-Methylphenylamino)-6-benzoxazolylacetyl)-(4S)-fluoro-(2S)-pyrrolidinylmethylamino)benzoic acid], for which the pKi is 7.51.

`Cc1ccccc1Nc1nc2ccc(CC(=O)N3CC[C@@H](Oc4ccc(C(=O)O)cc4)C3)cc2o1` [Example 34, 4-(1-(2-(2-Methylphenylamino)-6-benzoxazolylacetyl)-(3R)-pyrrolidinyloxy)benzoic acid]: the pKi is 7.59.

With `O=C(Nc1ccc(CC(=O)N2C[C@@H](F)C[C@H]2COC2CCC(C(=O)O)CC2)cc1Cl)c1c[nH]c2ccccc12` (stereo partly drawn) [Example 38, 4-(1-(3-Chloro-4-(3-indolylcarbonylamino)phenylacetyl)-(4S)-fluoro-(2S)-pyrrolidinylmethoxy)cyclohexanecarboxylic acid], the pKi is 9.37.

`Cn1cc(-c2nc3ccc(CC(=O)N4C[C@@H](F)C[C@H]4COC4CCC(C(=O)O)CC4)cc3o2)c2ccccc21` (stereo partly drawn) [Example 40, 4-((4S)-Fluoro-1-(2-(1-methyl-3-indolyl)-6-benzoxazolylacetyl)-(2S)-pyrrolidinylmethoxy)cyclohexanecarboxylic acid]: the pKi is 8.72.

On to `Cc1ccc(F)cc1Nc1nc2ccc(CC(=O)N3C[C@@H](F)C[C@H]3CO[C@H]3CC[C@H](C(=O)O)CC3)cc2o1` [Example 41, trans-4-(1-((2-(5-Fluoro-2-methylphenylamino)-6-benzoxazolyl)acetyl)-(4S)-fluoro-(2S)-pyrrolidinylmethoxy)cyclohexanecarboxylic acid], for which the negative-log Ki (pKi) is 8.42.

As to `Cc1cc(F)ccc1Nc1nc2ccc(CC(=O)N3C[C@@H](F)C[C@H]3CO[C@H]3CC[C@H](C(=O)O)CC3)c(F)c2o1` [Example 45, trans-4-(1-((2-(4-Fluoro-2-methylphenylamino)-7-fluoro-6-benzoxazolyl)acetyl)-(4S)-fluoro-(2S)-pyrrolidinylmethoxy)cyclohexanecarboxylic acid], the pKi is 8.06.

On to `Cc1c(F)cccc1Nc1nc2ccc(CC(=O)N3C[C@@H](F)C[C@H]3CO[C@H]3CC[C@H](C(=O)O)CC3)c(F)c2o1` [Example 46, trans-4-(1-((2-(3-fluoro-2-methylphenylamino)-7-fluoro-6-benzoxazolyl)acetyl)-(4S)-fluoro-(2S)-pyrrolidinylmethoxy)cyclohexanecarboxylic acid], for which the pKi is 7.43.

Take `Cc1ccc(F)cc1Nc1nc2c(F)cc(CC(=O)N3C[C@@H](F)C[C@H]3CO[C@H]3CC[C@H](C(=O)O)CC3)cc2o1` [Example 47, trans-4-(1-((2-(5-Fluoro-2-methylphenylamino)-4-fluoro-6-benzoxazolyl)acetyl)-(4S)-fluoro-(2S)-pyrrolidinylmethoxy)cyclohexanecarboxylic acid]: the pKi was 8.24.

On to `Cc1cc(CC(=O)N2C[C@@H](F)C[C@H]2CO[C@H]2CC[C@H](C(=O)O)CC2)ccc1Nc1nc2ccccc2o1` [Example 50, trans-4-(1-(4-(2-Benzoxazolyl)amino-3-methylphenylacetyl)-(4S)-fluoro-(2S)-pyrrolidinylmethoxy)cyclohexanecarboxylic acid], for which the pKi was 7.89.
